Results from PMC7904550, “Application of grouping and read-across for the evaluation of parabens of different chain lengths with a particular focus on endocrine properties” (Archives of Toxicology, 2021).
Marks after values point to notes of the source that are not given here.

How the values were obtained:
Wistar rats [1] = experiment: Higher-tier studies taken together (OECD TG 408, 414, 421/422, 443): NOAEL; details: over all higher-tier studies
Procedure: All in vivo studies were conducted as oral gavage studies, selecting the oral route as most appropriate route of administration to reflect the worst-case exposure scenario. […] The OECD TG 443 included mating of first generation (F1) offspring to produce a second generation (F2), and the DIT and DNT cohorts.

in vivo = details: for concentration at 1 h / Tmax / AUC(0-t) / Cmax: Wistar, rat, serum; for concentration at 1 h: oral; for Tmax / AUC(0-t) / Cmax: po
Method in brief: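 Test item given by oral gavage at 500 and 1000 mg/kg bw to 10 males and 10 females per dose group, following OECD TG 417. Serum parent parabens and the metabolite p-hydroxybenzoic acid were measured by […] (LOQ 10 ng/mL parabens, 130 ng/mL p-hydroxybenzoic acid). Faeces and urine were not analysed.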

bacteria = details: OECD 471; ref ECHA dissemination portal; cited from earlier work
rats = details: OECD 478; ref ECHA dissemination portal; cited from earlier work
Wistar rats [2] = experiment: 90-day repeated dose oral toxicity study (OECD TG 408); type: in vivo, rat; details: for NOAEL, 90-day repeated-dose toxicity: OECD 408 v 2018, oral gavage
Text: Healthy and specific pathogen-free male and female (non-pregnant and nulliparous) Wistar Crl: WI(Han) rats were obtained from Charles River Laboratories (Germany). […] Upon arrival at BSL BIOSERVICE, the animals underwent an acclimatisation period of at least 5 days, and they were approximately 15–16 weeks old at the onset of the treatment period.

[3] = parent compound, 500 mg/kg, female
[4] = parent compound, 500 mg/kg, male
[5] = parent compound, 1000 mg/kg, female
[6] = parent compound, 1000 mg/kg, male

## COC(=O)c1ccc(O)cc1 [Methyl paraben, Methyl 4-hydroxybenzoate]
Wistar rats [1]
  NOAEL: Accessory sex organs HP: 1000 / 1000 mg/kg bw/day
  NOAEL: Adrenals HP: 1000 / 1000 mg/kg bw/day
  NOAEL: Adrenals weight: 1000 / 1000 mg/kg bw/day
  NOAEL: Age at balano-preputial separation: 1000 / 1000 mg/kg bw/day
  NOAEL: Age at vaginal opening: 1000 / 1000 mg/kg bw/day
  NOAEL: Anogenital distance: 1000 / 1000 mg/kg bw/day
  NOAEL: Auditory startle: 1000 / 1000 mg/kg bw/day
  NOAEL: Brain HP: 1000 / 1000 mg/kg bw/day
  NOAEL: Brain morphometric evaluation: 1000 / 1000 mg/kg bw/day
  NOAEL: Brain weight: 1000 / 1000 mg/kg bw/day
  NOAEL: Cervix HP: 1000 / 1000 mg/kg bw/day
  NOAEL: Coagulating gland HP: 1000 / 1000 mg/kg bw/day
  NOAEL: Coagulating gland weight: 1000 / 1000 mg/kg bw/day
  NOAEL: Colloid area (thyroid HP): 1000 / 1000 mg/kg bw/day
  NOAEL: Dystocia: 1000 / 1000 mg/kg bw/day
  NOAEL: Epididymis HP: 1000 / 1000 mg/kg bw/day
  NOAEL: Epididymis weight: 1000 / 1000 mg/kg bw/day
  NOAEL: Fertility: 1000 / 1000 mg/kg bw/day
  NOAEL: Foetal development: 1000 / 1000 mg/kg bw/day
  NOAEL: Functional observation battery: 1000 / 1000 mg/kg bw/day
  NOAEL: Genital abnormalities: 1000 / 1000 mg/kg bw/day
  NOAEL: Gestation length: 1000 / 1000 mg/kg bw/day
  NOAEL: Litter / pup weight: 1000 / 1000 mg/kg bw/day
  NOAEL: Litter size: 1000 / 1000 mg/kg bw/day
  NOAEL: Litter viability: 1000 / 1000 mg/kg bw/day
  NOAEL: Liver weight: 1000 / 1000 mg/kg bw/day
  NOAEL: Mammary gland HP; females: 1000 / 1000 mg/kg bw/day
  NOAEL: Mammary gland HP; males: 1000 / 1000 mg/kg bw/day
  NOAEL: Motor activity: 1000 / 1000 mg/kg bw/day
  NOAEL: Nipple development: 1000 / 1000 mg/kg bw/day
  NOAEL: No. of implantations, corpora lutea: 1000 / 1000 mg/kg bw/day
  NOAEL: No. of live births: 1000 / 1000 mg/kg bw/day
  NOAEL: No. of ovarian follicles: 1000 / 1000 mg/kg bw/day
  NOAEL: Oestrus cyclicity: 1000 / 1000 mg/kg bw/day
  NOAEL: Offspring: learning & memory: 1000 / 1000 mg/kg bw/day
  NOAEL: Ovary HP: 1000 / 1000 mg/kg bw/day
  NOAEL: Ovary weight: 1000 / 1000 mg/kg bw/day
  NOAEL: Oviduct HP: 1000 / 1000 mg/kg bw/day
  NOAEL: Pituitary HP: 1000 / 1000 mg/kg bw/day
  NOAEL: Pituitary weight: 1000 / 1000 mg/kg bw/day
  NOAEL: Postimplantation loss: 1000 / 1000 mg/kg bw/day
  NOAEL: Pre-implantation loss: 1000 / 1000 mg/kg bw/day
  NOAEL: Presence of anomalies: 1000 / 1000 mg/kg bw/day
  NOAEL: Prostate HP: 1000 / 1000 mg/kg bw/day
  NOAEL: Prostate weight: 1000 / 1000 mg/kg bw/day
  NOAEL: Pup development: 1000 / 1000 mg/kg bw/day
  NOAEL: Reproduction: 1000 / 1000 mg/kg bw/day
  NOAEL: Seminal vesicles HP: 1000 / 1000 mg/kg bw/day
  NOAEL: Seminal vesicles weight: 1000 / 1000 mg/kg bw/day
  NOAEL: Testis HP: 1000 / 1000 mg/kg bw/day
  NOAEL: Testis weight: 1000 / 1000 mg/kg bw/day
  NOAEL: Thyroid HP: 1000 / 1000 mg/kg bw/day
  NOAEL: Thyroid stimulating hormone level: 1000 / 1000 mg/kg bw/day
  NOAEL: Thyroid weight: 1000 / 1000 mg/kg bw/day
  NOAEL: Time to mating: 1000 / 1000 mg/kg bw/day
  NOAEL: Triiodothyronine / thyroxine level: 1000 / 1000 mg/kg bw/day
  NOAEL: Uterus HP (with cervix): 1000 / 1000 mg/kg bw/day
  NOAEL: Uterus weight (with cervix): 1000 / 1000 mg/kg bw/day
  NOAEL: Vagina HP: 1000 / 1000 mg/kg bw/day
  NOAEL: Vaginal smears: 1000 / 1000 mg/kg bw/day
In vivo; female, 500 mg/kg
  concentration at 1 h: 338 ng/mL
  Tmax: 4.8 min
In vivo; female, 1000 mg/kg
  concentration at 1 h: 924 ng/mL
  Tmax: 4.8 min
In vivo; female, 500 mg/kg, AUC0-1 h, parent compound
  AUC(0-t): 6450 ng·h/mL
In vivo; female, 500 mg/kg, AUC0–t, parent compound
  AUC(0-t): 9500 ng·h/mL
In vivo; female, 500 mg/kg, parent compound
  Cmax: 21200 ng/mL
In vivo; female, 1000 mg/kg, AUC0-1 h, parent compound
  AUC(0-t): 11400 ng·h/mL
In vivo; female, 1000 mg/kg, AUC0–t, parent compound
  AUC(0-t): 20500 ng·h/mL
In vivo; female, 1000 mg/kg, parent compound
  Cmax: 33600 ng/mL
In vivo; female, 1000 mg/kg, parent compound, females
  Cmax: ~34000 ng/mL
In vivo; male, 500 mg/kg
  concentration at 1 h: 172 ng/mL
  Tmax: 4.8 min
In vivo; male, 1000 mg/kg
  concentration at 1 h: 552 ng/mL
In vivo; male, 500 mg/kg, AUC0-1 h, parent compound
  AUC(0-t): 1110 ng·h/mL
In vivo; male, 500 mg/kg, AUC0–t, parent compound
  AUC(0-t): 1790 ng·h/mL
In vivo; male, 500 mg/kg, parent compound
  Cmax: 6200 ng/mL
In vivo; male, 1000 mg/kg, AUC0-1 h, parent compound
  AUC(0-t): 4640 ng·h/mL
In vivo; male, 1000 mg/kg, AUC0–t, parent compound
  AUC(0-t): 6150 ng·h/mL
In vivo; male, 1000 mg/kg, parent compound
  Cmax: 10800 ng/mL
In vivo; male, 1000 mg/kg, parent compound, males
  Cmax: ~11000 ng/mL
In vivo; parent compound
  Rank of maximum serum concentration among the four parabens: highest maximum serum concentrations
In vivo; [3]
  AUC0-1 h/AUC0–t: 68%
  C1h/Cmax: 1.6%
  Clast: 77.3 ng/mL
  tlast: 8.0 h
In vivo; [4]
  AUC0-1 h/AUC0–t: 62%
  C1h/Cmax: 2.8%
  Clast: 48.6 ng/mL
  tlast: 8.0 h
In vivo; [5]
  AUC0-1 h/AUC0–t: 55%
  C1h/Cmax: 2.7%
  Clast: 179 ng/mL
  tlast: 8.0 h
In vivo; [6]
  AUC0-1 h/AUC0–t: 75%
  C1h/Cmax: 5.1%
  Clast: 122 ng/mL
  tlast: 8.0 h
bacteria
  Mutagenicity in bacteria classification: Not mutagenic (OECD 471; 1982, 1991)
rats
  Genetic toxicity in vivo (rats) classification: Not clastogenic (OECD 478; 1974) [d]
Wistar rats [2]
  NOAEL, 90-day repeated-dose toxicity: NOAEL: 1000 (OECD 408; v 2018) mg/kg body weight/day
Wistar rats [2]; listed as methyl paraben
  NOAEL, 90-day repeated-dose toxicity: 1000 mg/kg body weight/day
Wistar rats [2]; P0
  Accessory sex organs HP: NAE / NAE
  Adrenals HP: NAE / NAE
  Adrenals weight: NAE / NAE
  Brain weight: NAE / NAE
  Cervix HP: NAE / NAE
  Coagulating gland HP: NAE / NAE
  Coagulating gland weight: NAE / NAE
  Epididymis HP: NAE / NAE
  Epididymis weight: NAE / NAE
  Liver weight: NAE / NAE
  Mammary gland HP; females: NAE / NAE
  Mammary gland HP; males: NAE / NAE
  Oestrus cyclicity: NAE / NAE
  Ovary HP: NAE / NAE
  Ovary weight: NAE / NAE
  Oviduct HP: NAE / NAE
  Pituitary HP: NAE / NAE
  Pituitary weight: NAE / NAE
  Prostate HP: NAE / NAE
  Prostate weight: NAE / NAE
  Seminal vesicles HP: NAE / NAE
  Seminal vesicles weight: NAE / NAE
  Testis HP: NAE / NAE
  Testis weight: NAE / NAE
  Thyroid HP: NAE / NAE
  Thyroid stimulating hormone level: NAE / NAE
  Thyroid weight: NAE / NAE
  Triiodothyronine / thyroxine level: NAE / NAE
  Uterus HP (with cervix): NAE / NAE
  Uterus weight (with cervix): NAE / NAE
  Vagina HP: NAE / NAE
  Vaginal smears: NAE / NAE
Wistar rats [2]; sub-chronic (90-day) oral application
  Signs of systemic toxicity: did not induce any signs of systemic toxicity
